Key:
[1] = system: Rattus norvegicus; assay: Hypotensive activity in deoxycorticosterone acetate treated hypertensive CD rat assessed as change in blood pressure at 10 mg, ip after 2 hrs relative to control; format: functional
[2] = system: Rattus norvegicus; assay: Cardiovascular activity in deoxycorticosterone acetate treated hypertensive CD rat assessed as change in heart rate at 20 mg, ip after 2 hrs relative to control; format: ADME, organism-based; details: in vivo
[3] = system: Rattus norvegicus; assay: Cardiovascular activity in deoxycorticosterone acetate treated hypertensive CD rat assessed as change in heart rate at 50 mg, ip after 24 hrs relative to control; format: ADME, organism-based; details: in vivo
[4] = system: Rattus norvegicus; assay: Hypotensive activity in deoxycorticosterone acetate treated hypertensive CD rat assessed as change in blood pressure at 10 mg, ip after 24 hrs relative to control; format: functional
[5] = system: Rattus norvegicus; assay: Cardiovascular activity in deoxycorticosterone acetate treated hypertensive CD rat assessed as change in heart rate at 20 mg, ip after 1 hr relative to control; format: ADME, organism-based; details: in vivo
[6] = system: Rattus norvegicus; assay: Hypotensive activity in deoxycorticosterone acetate treated hypertensive CD rat assessed as change in blood pressure at 20 mg, ip after 4 hrs relative to control; format: functional
[7] = system: Rattus norvegicus; assay: Hypotensive activity in deoxycorticosterone acetate treated hypertensive CD rat assessed as change in blood pressure at 20 mg, ip after 24 hrs relative to control; format: functional
[8] = system: Rattus norvegicus; assay: Cardiovascular activity in deoxycorticosterone acetate treated hypertensive CD rat assessed as change in heart rate at 10 mg, ip after 2 hrs relative to control; format: ADME, organism-based; details: in vivo
[9] = system: Rattus norvegicus; assay: Hypotensive activity in deoxycorticosterone acetate treated hypertensive CD rat assessed as change in blood pressure at 50 mg, ip after 24 hrs relative to control; format: functional
[10] = system: Rattus norvegicus; assay: Cardiovascular activity in deoxycorticosterone acetate treated hypertensive CD rat assessed as change in heart rate at 20 mg, ip after 24 hrs relative to control; format: ADME, organism-based; details: in vivo
[11] = system: Rattus norvegicus; assay: Cardiovascular activity in deoxycorticosterone acetate treated hypertensive CD rat assessed as change in heart rate at 20 mg, ip after 4 hrs relative to control; format: ADME, organism-based; details: in vivo
[12] = system: Rattus norvegicus; assay: Cardiovascular activity in deoxycorticosterone acetate treated hypertensive CD rat assessed as change in heart rate at 10 mg, ip after 24 hrs relative to control; format: ADME, organism-based; details: in vivo
[13] = system: Rattus norvegicus; assay: Hypotensive activity in deoxycorticosterone acetate treated hypertensive CD rat assessed as change in blood pressure at 20 mg, ip after 1 hr relative to control; format: functional
[14] = system: Rattus norvegicus; assay: Cardiovascular activity in deoxycorticosterone acetate treated hypertensive CD rat assessed as change in heart rate at 10 mg, ip after 1 hr relative to control; format: ADME, organism-based; details: in vivo
[15] = system: Rattus norvegicus; assay: Hypotensive activity in deoxycorticosterone acetate treated hypertensive CD rat assessed as change in blood pressure at 20 mg, ip after 2 hrs relative to control; format: functional
[16] = system: Rattus norvegicus; assay: Hypotensive activity in deoxycorticosterone acetate treated hypertensive CD rat assessed as change in blood pressure at 10 mg, ip after 1 hr relative to control; format: functional
[17] = system: Rattus norvegicus; assay: Hypotensive activity in deoxycorticosterone acetate treated hypertensive CD rat assessed as change in blood pressure at 10 mg, ip after 4 hrs relative to control; format: functional
[18] = Toxicity in ip dosed Swiss-Webster mouse after 24 hrs; format: organism-based; details: in vivo
[19] = system: Rattus norvegicus; assay: Cardiovascular activity in deoxycorticosterone acetate treated hypertensive CD rat assessed as change in heart rate at 10 mg, ip after 4 hrs relative to control; format: ADME, organism-based; details: in vivo
[20] = system: Rattus norvegicus; assay: Cardiovascular activity in deoxycorticosterone acetate treated hypertensive CD rat assessed as change in heart rate at 50 mg, ip after 2 hrs relative to control; format: ADME, organism-based; details: in vivo
[21] = system: Rattus norvegicus; assay: Hypotensive activity in deoxycorticosterone acetate treated hypertensive CD rat assessed as change in blood pressure at 50 mg, ip after 2 hrs relative to control; format: functional
[22] = system: Rattus norvegicus; assay: Cardiovascular activity in deoxycorticosterone acetate treated hypertensive CD rat assessed as change in heart rate at 50 mg, ip after 1 hr relative to control; format: ADME, organism-based; details: in vivo
[23] = system: Rattus norvegicus; assay: Cardiovascular activity in deoxycorticosterone acetate treated hypertensive CD rat assessed as change in heart rate at 50 mg, ip after 4 hrs relative to control; format: ADME, organism-based; details: in vivo
[24] = system: Rattus norvegicus; assay: Hypotensive activity in deoxycorticosterone acetate treated hypertensive CD rat assessed as change in blood pressure at 50 mg, ip after 4 hrs relative to control; format: functional
[25] = system: Rattus norvegicus; assay: Hypotensive activity in deoxycorticosterone acetate treated hypertensive CD rat assessed as change in blood pressure at 50 mg, ip after 1 hr relative to control; format: functional
[26] = system: Rattus norvegicus; assay: Hypotensive activity in deoxycorticosterone acetate treated hypertensive CD rat assessed as change in blood pressure at 100 mg, ip after 2 hrs relative to control; format: functional
[27] = system: Rattus norvegicus; assay: Cardiovascular activity in deoxycorticosterone acetate treated hypertensive CD rat assessed as change in heart rate at 100 mg, ip after 1 hr relative to control; format: ADME, organism-based; details: in vivo
[28] = system: Rattus norvegicus; assay: Cardiovascular activity in deoxycorticosterone acetate treated hypertensive CD rat assessed as change in heart rate at 100 mg, ip after 4 hrs relative to control; format: ADME, organism-based; details: in vivo
[29] = system: Rattus norvegicus; assay: Cardiovascular activity in deoxycorticosterone acetate treated hypertensive CD rat assessed as change in heart rate at 100 mg, ip after 2 hrs relative to control; format: ADME, organism-based; details: in vivo
[30] = system: Rattus norvegicus; assay: Hypotensive activity in deoxycorticosterone acetate treated hypertensive CD rat assessed as change in blood pressure at 100 mg, ip after 1 hr relative to control; format: functional
[31] = system: Rattus norvegicus; assay: Cardiovascular activity in deoxycorticosterone acetate treated hypertensive CD rat assessed as change in heart rate at 100 mg, ip after 24 hrs relative to control; format: ADME, organism-based; details: in vivo
[32] = system: Rattus norvegicus; assay: Hypotensive activity in deoxycorticosterone acetate treated hypertensive CD rat assessed as change in blood pressure at 100 mg, ip after 4 hrs relative to control; format: functional
[33] = system: Rattus norvegicus; assay: Hypotensive activity in deoxycorticosterone acetate treated hypertensive CD rat assessed as change in blood pressure at 100 mg, ip after 24 hrs relative to control; format: functional

SMILES | Activity [2] | Activity [3] | Activity [5] | Activity [6] | Activity [7] | Activity [9] | Activity [10] | Activity [11] | Activity [13] | Activity [15] | LD50 at 24 h [18] | Activity [20] | Activity [21] | Activity [22] | Activity [23] | Activity [24] | Activity [25] | other results
COc1c2c(c3c(c1OC)CNCC3)CCC2 | 16.9% | -3.8% | 10.2% | -3.9% | -0.2% | -16.8% | 7.4% | 11% | -3.9% | -4% | 79 mg/kg | – | – | – | – | – | – | Activity [1]: -3.4%; Activity [4]: -7.2%; Activity [8]: 8.1%; Activity [12]: -9.1%; Activity [14]: 5.8%; Activity [16]: -3.1%; Activity [17]: -14.2%; Activity [19]: 3.9%
Br.COc1c2c(c3c(c1OC)CN(C)CC3)CCC2 | 9.2% | -3.8% | 3.5% | -4.2% | -2.9% | -4.6% | 1.5% | 8.5% | 6.3% | 5.5% | 100 mg/kg | -4.4% | -2.9% | -8.7% | 1.6% | -6.3% | -3% | –
Br.CCC(C)CN1CCc2c3c(c(OC)c(OC)c2C1)CCC3 (centres undefined) | 7.3% | – | 7.8% | -7% | -1.6% | – | -5.5% | 3.4% | -13.1% | -8.1% | 100 mg/kg | – | – | – | – | – | – | Activity [1]: -1.9%; Activity [4]: -2.6%; Activity [8]: -4.2%; Activity [12]: -2.4%; Activity [14]: 3.6%; Activity [16]: -12.2%; Activity [17]: 0.7%; Activity [19]: -4.3%
COc1ccc(C(=O)N2CCc3c4c(c(OC)c(OC)c3C2)CCC4)cc1OC | 8.9% | – | 3.8% | -3.1% | 5.6% | – | 5.7% | 2.2% | -4% | -1.4% | 150 mg/kg | – | – | – | – | – | – | –
COc1ccc(CN2CCc3c4c(c(OC)c(OC)c3C2)CCC4)cc1OC.Cl | – | -1.3% | – | – | – | 0.9% | – | – | – | – | 141 mg/kg | 9% | -4.2% | 13% | 10.2% | -0.7% | -8.8% | –
COc1ccc(CC(=O)N2CCc3c4c(c(OC)c(OC)c3C2)CCC4)cc1OC | 1.8% | – | 1.9% | -6.3% | -3.1% | – | -6.7% | 1.3% | 5.4% | -3.9% | 160 mg/kg | – | – | – | – | – | – | –
Br.COc1ccc(CCN2CCc3c4c(c(OC)c(OC)c3C2)CCC4)cc1OC | – | 2.4% | – | – | – | -2.8% | – | – | – | – | 125 mg/kg | 17.6% | -11.3% | 22% | 5.4% | -6.6% | -26% | –
COc1c2c(c3c(c1OC)CN(CC(c1ccccc1)c1ccccc1)CC3)CCC2 | 10.7% | – | 7.4% | -2.9% | -3% | – | -5% | 0.8% | 1.4% | 1.1% | > 1000 mg/kg | – | – | – | – | – | – | Activity [26]: -12.7%; Activity [27]: 8.7%; Activity [28]: 2.4%; Activity [29]: 2.4%; Activity [30]: -10.7%; Activity [31]: -2.4%; Activity [32]: -11.2%; Activity [33]: -3.6%
COc1c2c(c3c(c1OC)CN(C(=O)CC(c1ccccc1)c1ccccc1)CC3)CCC2 | 15.8% | – | 16.8% | -5% | -2.1% | – | -1.8% | 2.4% | -4.4% | -6.9% | 100 mg/kg | – | – | – | – | – | – | –
COc1c2c(c3c(c1OC)CN(CCC(c1ccccc1)c1ccccc1)CC3)CCC2 | – | – | – | – | – | – | – | – | – | – | 1000 mg/kg | – | – | – | – | – | – | Activity [26]: -7.9%; Activity [27]: 4%; Activity [28]: 0.8%; Activity [29]: 4.6%; Activity [30]: -3.5%; Activity [31]: 0.6%; Activity [32]: -6.7%; Activity [33]: -7%
